Experimental findings from US7211566B2 (Universite De Sherbrooke, priority 2003, dated 2007) are described below.

Holding throughout (type): in vitro ADME
One series addresses T1, aminopeptidase P (AmP) (Homo sapiens, UniProt Q9NQW7).
T1 construct: from tissue; host or cells: human platelets, freeze-thawed and sonicated, 43 000 x g supernatant
The experiment in a line: In vitro metabolic stability against human platelets AmP. The conditions noted are these: mean ± SEM of 3 experiments. As to the method:
(§1) These assays were performed using three enzyme preparations: purified angiotensin converting enzyme (ACE; from rabbit lung), human plasma as a, source of aminopeptidase M (AmM) and human platelets as a source of aminopeptidase P (AmP).
Human platelet AmP was prepared as described by Maggiora et al. (1999, J Med Chem 42, 2394–2402). Human platelets (40 ml) were centrifuged at 250×g for 7 min at room temperature. The resulting supernatant was recentrifuged at 2790×g for 15 min at room temperature. Pellets were collected, resuspended in 40 ml of phosphate-buffered saline (PBS) containing 3.5% of sodium citrate, and then re-centrifuged at 2790×g for 15 min at room temperature. This washing step was repeated. Pellets were resuspended in 4 ml of PBS-sodium citrate, snap-frozen in liquid nitrogen, thawed at 37° C., sonicated briefly, and then centrifuged at 43 000×g for 2 h at 4° C. (Sorvall RC 5B, ss-34 rotor). The resulting supernatant was used for enzyme assays as described in Neugebauer et al. (Neugebauer et al. 2002, supra).

Series [1] addresses T2, angiotensin converting enzyme (ACE) (Oryctolagus cuniculus, UniProt P12822).
T2 construct: In Vitro Biochemical Stability Assays Against Purified Native Enzymes; purchased Sigma, St. Louis, Mo; host or cells: rabbit lung
T2 sequence (P12822 34-1310): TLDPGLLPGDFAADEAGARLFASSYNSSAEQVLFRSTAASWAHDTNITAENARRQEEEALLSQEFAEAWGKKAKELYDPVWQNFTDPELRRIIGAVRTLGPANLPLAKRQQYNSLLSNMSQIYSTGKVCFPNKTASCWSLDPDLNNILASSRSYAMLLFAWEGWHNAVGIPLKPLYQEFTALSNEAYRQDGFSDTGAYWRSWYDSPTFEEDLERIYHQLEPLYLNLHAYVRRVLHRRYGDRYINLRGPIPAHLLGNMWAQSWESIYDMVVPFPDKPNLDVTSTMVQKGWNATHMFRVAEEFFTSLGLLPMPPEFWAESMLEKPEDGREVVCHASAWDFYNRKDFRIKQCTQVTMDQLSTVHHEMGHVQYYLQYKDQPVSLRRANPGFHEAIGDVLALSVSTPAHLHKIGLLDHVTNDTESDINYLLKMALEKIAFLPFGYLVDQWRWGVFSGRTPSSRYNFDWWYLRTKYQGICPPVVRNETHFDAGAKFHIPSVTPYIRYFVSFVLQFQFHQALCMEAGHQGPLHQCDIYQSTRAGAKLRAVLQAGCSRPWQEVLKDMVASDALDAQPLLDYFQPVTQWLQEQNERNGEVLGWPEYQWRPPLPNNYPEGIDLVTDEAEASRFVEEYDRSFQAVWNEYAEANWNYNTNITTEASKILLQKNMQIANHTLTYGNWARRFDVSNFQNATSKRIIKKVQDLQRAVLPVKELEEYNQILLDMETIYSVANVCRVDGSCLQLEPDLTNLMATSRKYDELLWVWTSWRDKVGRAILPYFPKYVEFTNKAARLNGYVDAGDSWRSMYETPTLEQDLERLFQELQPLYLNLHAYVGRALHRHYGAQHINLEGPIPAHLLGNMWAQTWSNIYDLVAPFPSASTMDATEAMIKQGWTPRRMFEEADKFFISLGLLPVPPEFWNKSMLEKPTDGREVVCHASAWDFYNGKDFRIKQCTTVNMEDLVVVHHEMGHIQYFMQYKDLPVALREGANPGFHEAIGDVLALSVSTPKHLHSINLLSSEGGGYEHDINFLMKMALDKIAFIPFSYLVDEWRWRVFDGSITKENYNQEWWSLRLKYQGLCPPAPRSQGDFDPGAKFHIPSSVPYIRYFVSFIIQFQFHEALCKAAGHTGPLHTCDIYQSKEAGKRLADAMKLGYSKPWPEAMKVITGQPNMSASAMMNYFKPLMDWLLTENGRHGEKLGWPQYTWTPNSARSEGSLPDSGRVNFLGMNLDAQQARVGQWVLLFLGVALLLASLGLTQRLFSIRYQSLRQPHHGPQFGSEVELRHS
The series can be described thus: In vitro metabolic stability against purified rabbit lung ACE. The conditions noted are these: purified angiotensin converting enzyme from rabbit lung, pH 7.5, peptide 200 μM, 60 min at 37° C., mean ± SEM of 3, read-out: Peptide metabolism (%) Rabbit lung ACE. The procedure:
as §1
Purified ACE from rabbit lungs (Sigma, St. Louis, Mo.) was dissolved in PBS (50 mM, pH 7.5, containing 300 mM NaCl and 10 μM ZnCl2; the final concentration of ACE was 45 μg/ml). Each of the peptide antagonists (200 μM) was incubated for 60 min at 37° C. with ACE (8.5 μl) (total volume medium, 187.5 μl). The enzymatic reaction was then terminated by boiling.
The experimental protocol for the measurement of ACE activity has been described elsewhere (Drapeau et a). 1993, J Pharmacol Exp Ther 266, 192–198; Gobeil et al., 1996, supra).

Another series addresses T3, aminopeptidase M (AmM) (Homo sapiens, UniProt P15144).
T3 construct: incubated for 60 min with 50 μl of human plasma; from tissue; host or cells: human plasma from heparinized blood of healthy male volunteers
The experiment in a line: In vitro metabolic stability against human plasma AmM. The conditions noted are these: male, human plasma as source of aminopeptidase M, pH 7.5, peptide 200 μM, 60 min incubation, mean ± SEM of 3, read-out: Peptide metabolism (%) Human plasma AmM. As to the method:
as §1
Human plasma AmM was prepared as previously described (Gobeil et al., 1999, Hypertension, 33, 823–829). Blood (5 ml) was withdrawn from healthy normotensive male Caucasian volunteers and put into heparinized tube (200 U). Blood samples were centrifuged at 1500 rpm for 15 min in a refrigerated tabletop centrifuge. The peptide antagonists (200 μM) were placed in a PBS buffer (50 mM, pH 7.5, containing 300 mM NaCl) and incubated for 60 min with 50 μl of human plasma (total volume of the medium, 375 μl). Immersing samples into boiling water and then cooling them on ice stopped the hydrolysis reaction. Control experiments have shown that ≈70% of the kininase activity that is present in the human plasma is abolished by amastatin (1 μM) and that the incubation of Lys-[Leu^8]desArg^9BK with this enzymatic preparation led to the production of [Leu^8]desArg^9BK as detected by electrospray mass spectrometry.

Square brackets hold non-standard residues; d marks the D form. Peptide text beside a SMILES is read from it. Oic = O=C(O)[C@@H]1C[C@@H]2CCCC[C@@H]2N1; d2Nal = N[C@H](Cc1ccc2ccccc2c1)C(=O)O; αMeF = C[C@](N)(Cc1ccccc1)C(=O)O; Orn = NCCC[C@H](N)C(=O)O

T3 sequence (P15144 whole entry): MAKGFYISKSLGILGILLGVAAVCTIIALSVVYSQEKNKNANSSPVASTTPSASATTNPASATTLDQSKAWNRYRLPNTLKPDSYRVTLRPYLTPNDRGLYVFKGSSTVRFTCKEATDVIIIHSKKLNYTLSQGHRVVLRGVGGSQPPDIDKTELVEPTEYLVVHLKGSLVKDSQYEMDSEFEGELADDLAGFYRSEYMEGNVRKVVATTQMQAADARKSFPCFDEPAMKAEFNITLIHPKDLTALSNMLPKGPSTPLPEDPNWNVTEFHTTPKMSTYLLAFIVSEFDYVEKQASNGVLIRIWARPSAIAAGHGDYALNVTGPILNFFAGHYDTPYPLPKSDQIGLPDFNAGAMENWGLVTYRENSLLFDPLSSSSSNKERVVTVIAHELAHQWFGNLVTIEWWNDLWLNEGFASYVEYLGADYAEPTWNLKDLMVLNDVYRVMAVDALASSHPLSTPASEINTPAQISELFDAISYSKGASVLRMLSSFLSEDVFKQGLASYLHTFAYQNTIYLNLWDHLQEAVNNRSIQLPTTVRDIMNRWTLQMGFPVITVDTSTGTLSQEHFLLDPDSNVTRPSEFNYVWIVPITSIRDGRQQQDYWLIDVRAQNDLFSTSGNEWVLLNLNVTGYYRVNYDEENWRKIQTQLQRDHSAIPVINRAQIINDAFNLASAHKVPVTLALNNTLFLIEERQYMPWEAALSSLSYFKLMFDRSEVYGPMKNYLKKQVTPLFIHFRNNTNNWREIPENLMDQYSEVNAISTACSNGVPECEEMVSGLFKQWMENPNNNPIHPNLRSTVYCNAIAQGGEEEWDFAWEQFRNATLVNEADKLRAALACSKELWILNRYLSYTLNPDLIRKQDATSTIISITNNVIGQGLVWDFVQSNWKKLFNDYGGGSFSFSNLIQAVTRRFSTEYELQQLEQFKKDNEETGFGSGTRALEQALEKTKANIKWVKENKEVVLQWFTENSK
T1 sequence (Q9NQW7 whole entry): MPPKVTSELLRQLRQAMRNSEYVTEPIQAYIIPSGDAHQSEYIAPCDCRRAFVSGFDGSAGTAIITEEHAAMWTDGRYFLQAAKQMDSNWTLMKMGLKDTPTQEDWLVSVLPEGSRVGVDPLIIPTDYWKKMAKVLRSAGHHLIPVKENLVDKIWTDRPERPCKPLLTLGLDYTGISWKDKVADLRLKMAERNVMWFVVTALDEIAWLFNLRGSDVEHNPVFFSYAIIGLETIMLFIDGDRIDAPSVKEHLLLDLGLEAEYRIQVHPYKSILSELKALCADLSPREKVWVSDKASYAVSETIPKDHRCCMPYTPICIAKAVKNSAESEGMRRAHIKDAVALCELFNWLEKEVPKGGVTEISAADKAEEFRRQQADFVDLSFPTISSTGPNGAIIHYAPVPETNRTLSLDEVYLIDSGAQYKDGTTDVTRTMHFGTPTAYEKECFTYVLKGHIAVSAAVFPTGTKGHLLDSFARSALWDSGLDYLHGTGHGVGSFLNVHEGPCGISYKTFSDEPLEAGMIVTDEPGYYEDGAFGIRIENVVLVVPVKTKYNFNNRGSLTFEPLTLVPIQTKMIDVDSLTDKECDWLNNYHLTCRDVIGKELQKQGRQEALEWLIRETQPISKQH

Turning to `CC[C@H](C)[C@H](NC(=O)[C@@H](Cc1ccc2ccccc2c1)NC(=O)[C@H](CO)NC(=O)[C@](C)(Cc1ccccc1)NC(=O)CNC(=O)[C@@H]1CCCN1C(=O)[C@@H]1C[C@@H]2CCCC[C@@H]2N1C(=O)[C@H](CCCNC(=N)N)NC(=O)[C@H](CCCCN)NC(C)=O)C(=O)O` [Ac-Lys[Oic^2,(α-Me)Phe^5,D-βNal^7,Ile^8]desArg^9BK] (Ac-KR[Oic]PG[αMeF]S[d2Nal]I-OH), on aminopeptidase P (AmP), the “Peptide metabolism (%) Human platelets AmP” value was found to be 12 ± 4%. Moreover, the metabolised at 1 h, 200 µM (in series [1]; at aminopeptidase M (AmM)) was 0% throughout.
With `CC[C@H](C)[C@H](NC(=O)[C@@H](Cc1ccc2ccccc2c1)NC(=O)[C@H](CO)NC(=O)[C@](C)(Cc1ccccc1)NC(=O)CNC(=O)[C@@H]1CCCN1C(=O)[C@@H]1C[C@@H]2CCCC[C@@H]2N1C(=O)[C@H](CCCNC(=N)N)NC(=O)[C@H](CCCN)NC(C)=O)C(=O)O` [compound c, Ac-Orn[Oic^2,(α-Me)Phe^5,D-βNal^7,Ile^8]desArg^9BK] (Ac-[Orn]R[Oic]PG[αMeF]S[d2Nal]I-OH), the “Peptide metabolism (%) Human platelets AmP” value at aminopeptidase P (AmP) turned out to be 12 ± 2%. Besides, the metabolised at 1 h, 200 µM (in series [1]; on aminopeptidase M (AmM)) was 0% each time.
